Values belong to the molecule of their own block, whether it stands above or below them.
What was measured:
HIV-1Ba-L [1] = assay: Combination of HIV-1 inhibitors in HIV-1Ba-L infected PBMC (checker board, CalcuSyn)
COX-2 = target: T1, COX-2 (Homo sapiens, UniProt P35354); settings: cited from earlier work
T1 sequence (P35354 18-604): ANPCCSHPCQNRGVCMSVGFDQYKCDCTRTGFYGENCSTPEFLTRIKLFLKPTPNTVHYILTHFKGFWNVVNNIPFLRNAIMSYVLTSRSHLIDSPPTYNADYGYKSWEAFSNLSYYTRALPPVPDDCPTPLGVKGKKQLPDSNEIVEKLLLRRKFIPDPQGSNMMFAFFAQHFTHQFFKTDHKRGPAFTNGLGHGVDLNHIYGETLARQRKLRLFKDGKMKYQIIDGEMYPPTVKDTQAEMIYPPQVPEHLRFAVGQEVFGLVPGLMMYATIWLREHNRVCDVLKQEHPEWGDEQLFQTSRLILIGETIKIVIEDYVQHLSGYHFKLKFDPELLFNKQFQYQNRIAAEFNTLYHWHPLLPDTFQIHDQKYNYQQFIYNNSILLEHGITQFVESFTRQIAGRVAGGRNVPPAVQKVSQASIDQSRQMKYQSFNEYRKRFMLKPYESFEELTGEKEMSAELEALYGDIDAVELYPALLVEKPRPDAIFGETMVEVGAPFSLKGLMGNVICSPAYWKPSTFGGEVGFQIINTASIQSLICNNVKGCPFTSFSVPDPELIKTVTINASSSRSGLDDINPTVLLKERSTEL

HIV-1Ba-L [2] = assay: HIV-1 infection of PBMC, p24-core antigen ELISA; type: cell-based; settings: for antiviral activity compared to APHS / antiviral activity compared to compound 18: PBMC, HIV-1Ba-L
Experimental: To correct for the input virus, an extra control consisting of medium containing the same amount of input virus as added to the cells was included in the experiment. The amount of p24 in this control was subsequently subtracted from the p24 values of the samples in order to obtain the exact amount of p24 produced by the cells. p24-core antigen quantification by ELISA After 2 or 7 days incubation, samples of the supernatants were collected, inactivated by addition of Empigen (Calbiochem, La Jolla, CA, USA) and by heat inactivation at 56°C for 30 min. p24-core antigen concentration was determined by an enzyme linked immunoabsorbent assay (ELISA) (AMPAK™, DAKO, Cambridgeshire, UK) as described previously ^18,19. The optical density values were converted into p24 concentration (ng/ml) with the use of a calibration curve made by serial dilutions of recombinant p24 protein (NIBSC, UK) that was submitted to the same treatment as the samples.
(§1) To correct for the input virus, an extra control consisting of medium containing the same amount of input virus as added to the cells was included in the experiment. The amount of p24 in this control was subsequently subtracted from the p24 values of the samples in order to obtain the exact amount of p24 produced by the cells.
(§2) After 7 days incubation, samples of the supernatants were collected, inactivated by addition of Empigen (Calbiochem, La Jolla, CA, USA) and by heat inactivation at 56°C for 30 min. p24-core antigen concentration was determined by an ELISA (AMPAK™, DAKO, Cambridgeshire, UK) as described previously ^39,40. The optical density values were converted into p24 concentration (ng/ml) with the use of a calibration curve made by serial dilutions of recombinant p24 protein (NIBSC, UK) that was submitted to the same treatment as the samples.
as §1
as §2, with “enzyme linked immunoabsorbent assay (ELISA)” for “ELISA”, “15,16.” for “^39,40.”

PBMC = assay: Cellular viability assay (MTT) of PBMC; settings: PBMC
in vitro = settings: human, pbmc
[3] = Human immunodeficiency virus 1, PBMC, 168 h, read-out: IC50 Drug, drug alone, head over this column prints Combination
[4] = read-out: IC50 Combination Drug, drug in combination with APHS at the equipotent ratio (1 : 1)
[5] = Human immunodeficiency virus 1, 168 h, PBMC infected with HIV-1Ba-L, p24 antigen after 7 days, read-out: IC50
[6] = PBMC infected with HIV-1Ba-L, p24 antigen after 7 days, read-out: IC50
[7] = Human immunodeficiency virus 1, PBMC, 168 h

- IC50 (HIV-1Ba-L [1]; [3]): 10 nM
- IC50 (HIV-1Ba-L [1]; [4]): 3 nM
Compound: Nc1ccn([C@@H]2CS[C@H](CO)O2)c(=O)n1 [3TC, lamivudine]

Compound: CCCCC#CCS(=O)(=O)c1ccccc1OC(C)=O [APHS-d1]
- COX-2 activity, potency and selectivity compared with APHS (COX-2): without anti-COX-2 activity

Compound: CCCCCCCSc1ccccc1OC(C)=O [APHS-d2]
- COX-2 activity, potency and selectivity compared with APHS (COX-2): as potent as APHS but less selective against COX-2 than APHS

Compound: CCCCC#CCSc1ccccc1O [APHS-d3]
- COX-2 activity, potency and selectivity compared with APHS (COX-2): without COX-2 activity

Compound: CSc1ccccc1OC(C)=O [APHS-d4]
- COX-2 activity, potency and selectivity compared with APHS (COX-2): more selective than APHS
- times less potent than APHS against COX-2 (COX-2): 100

- IC50 (HIV-1Ba-L [1]; [3]): 1 nM
- IC50 (HIV-1Ba-L [1]; [4]): 0.2 nM
Compound: O=C1Nc2ccc(Cl)cc2[C@@](C#CC2CC2)(C(F)(F)F)O1 [EFV, efavirenz]

- IC50 (HIV-1Ba-L [1]; [3]): 11 nM
- IC50 (HIV-1Ba-L [1]; [4]): 5 nM
Compound: CC(C)(C)NC(=O)[C@@H]1CN(Cc2cccnc2)CCN1C[C@@H](O)C[C@@H](Cc1ccccc1)C(=O)N[C@H]1c2ccccc2C[C@H]1O [IDV, indinavir]

- IC50 (HIV-1Ba-L [1]; [3]): 6 nM
- IC50 (HIV-1Ba-L [1]; [4]): 3 nM
Compound: CC(C)c1nc(CN(C)C(=O)N[C@H](C(=O)N[C@@H](Cc2ccccc2)C[C@H](O)[C@H](Cc2ccccc2)NC(=O)OCc2cncs2)C(C)C)cs1 [RTV, ritonavir]

Compound: CC(=O)Oc1ccccc1C(=O)O [aspirin, reference compound]
- times less potent than APHS against COX-2 (COX-2): 60
- times less selective than APHS for COX-2 (COX-2): 100

Compound: CCCCC#CCSc1ccccc1OCC [compound 1, Benzene, 1-ethoxy-2-(2-heptynylthio)-]
- antiviral activity compared to APHS (HIV-1Ba-L [2]): decreased
- cytotoxicity compared to APHS (PBMC): decreased

Compound: CCCCOCCSc1ccccc1OC(=O)C(F)(F)F [compound 7, Acetic acid, trifluoro-, 2-(2-butoxyethylthio)phenylester]
- antiviral activity compared to APHS (HIV-1Ba-L [2]): decreased
- cytotoxicity compared to APHS (PBMC): decreased

Compound: CCCCCCCCSc1ccccc1O [compound 8]
- antiviral activity compared to APHS (HIV-1Ba-L [2]): less antiviral activity than APHS
- cytotoxicity compared to APHS (PBMC): increase

- IC50 (HIV-1Ba-L [2]; [5]): 20000 nM
Compound: CCCCCCCCSc1ccccc1OC(C)=O [compound 9]
- CC50 at 168 h (in vitro): 135000 nM

Compound: CCCCCCCSc1ccccc1O [compound 10]
- antiviral activity compared to APHS (HIV-1Ba-L [2]): less antiviral activity than APHS
- cytotoxicity compared to APHS (PBMC): increase

- IC50 (HIV-1Ba-L [2]; [5]): 10000 nM
Compound: CCCCCCCSc1ccccc1OC(C)=O [compound 11]
- CC50 at 168 h (in vitro): 48000 nM

Compound: CCCCCCCSc1ccccc1OC(=O)C(F)(F)F [compound 12, Acetic acid, trifluoro-, 2-(heptylthio) phenylester]
- antiviral activity compared to APHS (HIV-1Ba-L [2]): decreased
- cytotoxicity compared to APHS (PBMC): decreased

Compound: CCCCCCCSc1ccccc1OC(=O)CCCC [compound 13, Phenol, 2-(heptylthio)-, valerate]
- antiviral activity compared to APHS (HIV-1Ba-L [2]): decreased
- cytotoxicity compared to APHS (PBMC): decreased

Compound: CCCCCCCSc1ccccc1OC(=O)c1ccccc1 [compound 14, Phenol, 2-(heptylthio)-, benzoate]
- antiviral activity compared to APHS (HIV-1Ba-L [2]): decreased
- cytotoxicity compared to APHS (PBMC): increased

- IC50 (HIV-1Ba-L [2]; [6]): 3000 nM
Compound: CCCCCCCSc1ccc(O)cc1 [compound 15]
- antiviral activity compared to APHS (HIV-1Ba-L [2]): increased
- cytotoxicity compared to APHS (PBMC): increased
- fold increase in cytotoxicity compared to APHS (PBMC): about 10

- IC50 (HIV-1Ba-L [2]; [5]): 2000 nM
Compound: CCCCCCCSc1ccc(OC(C)=O)cc1 [compound 16, Phenol, 4-(heptylthio)-, acetate]
- antiviral activity compared to APHS (HIV-1Ba-L [2]): increase
- cytotoxicity compared to APHS (PBMC): increase
- fold increase in cytotoxicity compared to APHS (PBMC): about 10

- IC50 (HIV-1Ba-L [2]; [7]): 4000 nM
Compound: CCCCCCSc1ccccc1O [compound 17]
- antiviral activity compared to APHS (HIV-1Ba-L [2]): improvement
- cytotoxicity compared to APHS (PBMC): increase

- IC50 (HIV-1Ba-L [2]; [6]): 3000 nM
Compound: CCCCCCSc1ccccc1OC(C)=O [compound 18]
- CC50 (PBMC; read-out: TC50, 7 days, MTT): 119000 nM

Compound: CCCCCSc1ccccc1O [compound 19]
- IC50 (HIV-1Ba-L [2]; [7]): 900 nM
- antiviral activity compared to APHS (HIV-1Ba-L [2]): improved

Compound: CCCCCSc1ccccc1OC(C)=O [compound 20]
- antiviral activity compared to compound 18 (HIV-1Ba-L [2]): worse

- IC50 (HIV-1Ba-L [2]; [7]): 3000 nM
Compound: CCCCSc1ccccc1O [compound 21]
- antiviral activity compared to APHS (HIV-1Ba-L [2]): improved

Compound: CCCCSc1ccccc1OC(C)=O [compound 22]
- antiviral activity compared to compound 18 (HIV-1Ba-L [2]): worse

- IC50 (HIV-1Ba-L [2]; [7]): 5000 nM
Compound: CCCSc1ccccc1O [compound 23]
- antiviral activity compared to APHS (HIV-1Ba-L [2]): improved

Compound: CCCSc1ccccc1OC(C)=O [compound 24]
- antiviral activity compared to compound 18 (HIV-1Ba-L [2]): worse

- IC50 (HIV-1Ba-L [2]; [7]): 4000 nM
Compound: CCSc1ccccc1O [compound 25]
- antiviral activity compared to APHS (HIV-1Ba-L [2]): improved

Compound: CCSc1ccccc1OC(C)=O [compound 26]
- antiviral activity compared to compound 18 (HIV-1Ba-L [2]): worse
